Reference: patent US8057829B2, “Methods for repelling insects using sesquiterpene hydrocarbons and their derivatives” (Sterling International Inc., priority 2008, dated 2011)

How the values were obtained:
[1] = test system: antennae of housefly, sand fly, and mosquitoes Aedes aegypti, Anopheles gambiae, Anopheles stephensi; assay: GC-EAD antennal responses to SPME samples of clove essential oil; details: component of clove essential oil SPME sample; response by one or more of the insects; FIG. 1
Experimental: The GC-EAD antennal response of a female housefly (Musca domestica), sand fly (Phlebotomus papatasi), and mosquitoes including the species Aedes aegypti, Anopheles gambiae, and Anopheles stephensi were tested with clove essential oil. FIG. 1 is a simultaneous recording of GC flame ionization detection (FID) and electroantennographic detection (EAD) of the insect antennae to solid phase microextraction (SPME: CAR/PDMS) samples of clove essential oil in a 20 ml glass vial for 20 sec.
The following procedures were employed to test the EAD response of an insect antenna to a repellent compound. The GC-EAD technique provides an efficient tool for screening behaviorally active repellents. Several synthetic mixtures of potential insect repellent candidates, mostly sesquiterpene hydrocarbons and derivatives, were analyzed in splitless mode using a Varian CP-3800 GC equipped with a polar column (Innowax; 1.0 μm film thickness, 30 m×0.53 mm ID; J & W Scientific), and a 1:1 effluent splitter that allowed simultaneous flame ionization detection (FID) and EAD of the separated volatile compounds. Helium was used as the carrier gas, and the injector temperature was 220° C. The column temperature was 50° C. for 2 min, rising to 240° C. at 10° C./min, then held for 10 min. The outlet for the EAD was held in a humidified air stream flowing at 0.5 liter/min. over an antennal preparation. A glass capillary indifferent electrode filled with Beadle-Ephrussi Ringer, and grounded via a silver wire, was inserted into the severed insect's head with the antennae. A similar recording electrode connected to a high-impedance DC amplifier with automatic baseline drift compensation was placed in contact with the distal end of one antenna (Zhang et al., Chemoecology, 10:69-80 (2000)). The antennal signals were stored and analyzed on a PC equipped with a serial IDAC interface box and the program EAD ver. 2.5 (Syntech, Hilversum, The Netherlands). The compound 1-octen-3-ol (known attractant for many flies and mosquitoes) was included in most of the synthetic mixtures, as a positive control. […]

[2] = test system: Aedes aegypti; assay: K&D module behavioral bioassay (topical repellency, biting); assay type: in vivo
Experimental: (§1) The bioassays were conducted with a six-cell in vitro K&D module system, as disclosed in Klun and Debboun, J. Med. Entomol. 37:177-181 (2000), loaded with an “artificial blood” (CPDA+ATP) solution.
(§2) Clove essential oil, patchouli oil, and EAD-active potential repellents, β-caryophyllene, isocaryophyllene, (+)-longifolene, and their 1:1:1 mixture, plus α-guaiene, caryophyllene oxide, and a β-caryophyllene ketone, were tested using the six-cell in vitro K&D module system (Klun and Debboun, J. Med. Entomol. 37:177-181 (2000)) loaded with an “artificial blood” (CPDA+ATP) solution on both Ae. aegypti and An. stephensi in a dose-response fashion. The K&D in vitro assay system has three components: (1) a Plexiglas™ 29.7 cm.×7.1 cm K&D module composed of six adjacent cells, each designed to hold mosquitoes and each having a rectangular 3×4 cm floor hole that is opened and closed by a sliding door; (2) a Plexiglas™ six-well 29.7 cm×7.1 cm water water-bath warmed (38° C.) reservoir with six 3×4 cm wells designed to match the sliding-door openings of the K&D module base and to contain 6 mL warmed “artificial blood” wells covered with a collagen membrane; and (3) a 29.7 cm×7.1 cm'0.4 cm Teflon® separator having six rectangular openings like the K&D module. The K&D module was connected to a constant temperature water circulator at 38° C. The cells were covered with an Edicol collagen membrane strip. Nylon organdy strips with ink cell patterns were numbered and randomly treated with […] of the tested chemical in ethanol (ethanol alone as blank control), plus DEET (ca. 10 μg/cm^2) as a positive control. This treated nylon organdy strip was placed on top of the collagen membrane. The upper section of the K & D module with the six cells each containing 5 mosquitoes (5-10 d old, starved for 24 hr before testing) was placed on top of the nylon strip. The doors to the cells were slid open so the mosquitoes could be free to feed on the “artificial blood” via the collagen membrane if they were hungry. The experiments were allowed to run for 3 minutes, and the number of mosquitoes feeding (biting) in each cell was recorded. After each experiment, the nylon and collagen strips were removed. The CPDA+ATP solution was removed and allowed to dry prior to starting the next experiment. The experiments on each chemical and each mosquito species were run three times before the bottom section with circulated water was cleaned prior to use again.

[3] = test system: Anopheles stephensi; assay: as above; assay type: in vivo
Experimental: as §1, §2

[4] = test system: Phlebotomus papatasi; assay: Y-tube olfactometer behavioral bioassay (spatial repellency); assay type: in vivo
Experimental: (§3) Aegypti and An. stephensi, and one species of sand fly, P. papatasi. Both the mosquitoes and the sand flies used in the study were from colonies maintained at the Walter Reed Army Institute of Research, Department of Entomology, Silver Spring, Md. This Y-tube bioassay system, equipped with CO2-enriched air (ca. 1 l/min) as an attractant, was made from three clear acrylic tubes (4″ diameter; 12″ length) with symmetrical 120° angles among the three tube arms; and a screen butterfly valve on the top part of the bottom releasing tube. These spatial repellency tests were carried out during 8:00 am-12:00 pm (photophase) time period for Ae. aegypti and 1:00-5:00 pm (shifted scotophase) time period for the species of night-flying mosquitoes and sand fly in a temperature and humidity controlled testing room (23-25° C. and 20-40% RH). Female mosquitoes or sand flies were stored at ˜25-26° C., 50-89% RH, 12:12 hr. (L/D), fed with 10% sucrose solution before testing. The candidate chemical (individual or mixture) dispenser and a blank control were placed in the upper left or right arm of the Y-tube before releasing 25-40, 6 to 10 day-old female mosquitoes (or 3 to 10 day-old sand flies) into the bottom tube via a small hole. After a 30-60 sec acclimation period, the butterfly screen valve (door) on the top of the bottom tube was opened. After 10 min., the valve was closed and the numbers of mosquitoes or sand flies in each arm (including the bottom tube) were counted. In order to minimize the position effect, the same experiment was repeated once with the treatment and blank control arms shifted using a new (clean) Y-tube olfactometer and a new batch of mosquitoes/sand flies. Data from these two replicates were pooled for χ2 goodness of fit test (df=1) between the treatment and blank control.

[5] = test system: Aedes aegypti; assay: as above; assay type: in vivo
Experimental: as §3

[6] = test system: Anopheles stephensi; assay: as above; assay type: in vivo
Experimental: as §3

[7] = test system: antennae of housefly, sand fly, and mosquitoes (Aedes aegypti, Aedes increpitus, Anopheles gambiae); assay: GC-EAD antennal responses to SPME samples of patchouli essential oil; details: component of patchouli essential oil SPME sample; response by one or more of the insects; FIG. 2
Experimental: The following procedures were employed to test the EAD response of an insect antenna to a repellent compound. The GC-EAD technique provides an efficient tool for screening behaviorally active repellents. Several synthetic mixtures of potential insect repellent candidates, mostly sesquiterpene hydrocarbons and derivatives, were analyzed in splitless mode using a Varian CP-3800 GC equipped with a polar column (Innowax; 1.0 μm film thickness, 30 m×0.53 mm ID; J & W Scientific), and a 1:1 effluent splitter that allowed simultaneous flame ionization detection (FID) and EAD of the separated volatile compounds. Helium was used as the carrier gas, and the injector temperature was 220° C. The column temperature was 50° C. for 2 min, rising to 240° C. at 10° C./min, then held for 10 min. The outlet for the EAD was held in a humidified air stream flowing at 0.5 liter/min. over an antennal preparation. A glass capillary indifferent electrode filled with Beadle-Ephrussi Ringer, and grounded via a silver wire, was inserted into the severed insect's head with the antennae. A similar recording electrode connected to a high-impedance DC amplifier with automatic baseline drift compensation was placed in contact with the distal end of one antenna (Zhang et al., Chemoecology, 10:69-80 (2000)). The antennal signals were stored and analyzed on a PC equipped with a serial IDAC interface box and the program EAD ver. 2.5 (Syntech, Hilversum, The Netherlands). The compound 1-octen-3-ol (known attractant for many flies and mosquitoes) was included in most of the synthetic mixtures, as a positive control.

[8] = test system: Aedes Aegypti, Anopheles stephensi and the sand fly P. papatasi; assay: Y-tube bioassay, statements pooled for the three species; assay type: in vivo, Aedes aegypti; Anopheles stephensi; Phlebotomus papatasi; details: clove oil ca. 10 mg/day, patchouli oil 15 mg/d, sesquiterpenes 1 to 35 mg/d release
Experimental: as §3

[9] = 10 μg/cm^2, DEET values are the positive control run with the chemical
[10] = Phlebotomus papatasi females, release rate per chemical, 10 min
[11] = Aedes aegypti females, release rate per chemical (1-60 mg/day), 10 min
[12] = Anopheles stephensi females, release rate per chemical (β-Caryophyllene 10 mg/day), 10 min

C=CCc1ccc(O)c(OC)c1 [eugenol]
GC-EAD antennal activity [1]: EAD-inactive (or weakly active)

C=C(C)[C@@H]1CC[C@H](C)C2=C(C1)[C@@H](C)CC2 [α-Guaiene, α-guaiene]
% of biting (±SE) (N = 3) [2, 9]: 33 ± 7b %
% of biting (±SE) (N = 3) ([2]; 100 μg/cm^2): 0 ± 0a %
% of biting (±SE) (N = 3) ([2]; 500 μg/cm^2): 0 ± 0a %
% of biting (±SE) (N = 3) ([2]; 1000 μg/cm^2): 0 ± 0a %
% of biting (±SE) (N = 3) [3, 9]: 40 ± 0b %
% of biting (±SE) (N = 3) ([3]; 100 μg/cm^2): 0 ± 0a %
% of biting (±SE) (N = 3) ([3]; 500 μg/cm^2): 0 ± 0a %
% of biting (±SE) (N = 3) ([3]; 1000 μg/cm^2): 0 ± 0a %
SAI (Spatial Activity Index) ([4]; Phlebotomus papatasi): 0.78
Number of mosquitoes in each arm: Repellent ([4]; Phlebotomus papatasi (sand fly) females, release rate per chemical (1-35 mg/day), 10 min): 5
Number of mosquitoes in each arm: Blank [4, 10]: 41
Number of mosquitoes in each arm: Bottom [4, 10]: 17
Number of mosquitoes in each arm: Blank [5, 11]: 49
Number of mosquitoes in each arm: Bottom [5, 11]: 16
Number of mosquitoes in each arm: Repellent ([5]; Aedes aegypti females, release rate per chemical (1-60 mg/day), 10 min, two replicates pooled): 13
SAI (Spatial Activity Index) ([5]; Aedes aegypti, (Nc − Nt)/(Nc + Nt), −1 to 1, zero indicating no response): 0.58
Number of mosquitoes in each arm: Repellent ([6]; Anopheles stephensi females, release rate per chemical (1-60 mg/day; β-Caryophyllene 10 mg/day), 10 min): 6
Number of mosquitoes in each arm: Blank [6, 12]: 20
Number of mosquitoes in each arm: Bottom [6, 12]: 40
SAI (Spatial Activity Index) ([6]; Anopheles stephensi, β-Caryophyllene 10 mg/day): 0.54
GC-EAD antennal activity [7]: elicited EAD-activity
spatial repellency, in words [8]: showed spatial repellency effects
